Assay [1] addresses T1, AHR (Homo sapiens, UniProt P35869).
T1 sequence (P35869 11-848): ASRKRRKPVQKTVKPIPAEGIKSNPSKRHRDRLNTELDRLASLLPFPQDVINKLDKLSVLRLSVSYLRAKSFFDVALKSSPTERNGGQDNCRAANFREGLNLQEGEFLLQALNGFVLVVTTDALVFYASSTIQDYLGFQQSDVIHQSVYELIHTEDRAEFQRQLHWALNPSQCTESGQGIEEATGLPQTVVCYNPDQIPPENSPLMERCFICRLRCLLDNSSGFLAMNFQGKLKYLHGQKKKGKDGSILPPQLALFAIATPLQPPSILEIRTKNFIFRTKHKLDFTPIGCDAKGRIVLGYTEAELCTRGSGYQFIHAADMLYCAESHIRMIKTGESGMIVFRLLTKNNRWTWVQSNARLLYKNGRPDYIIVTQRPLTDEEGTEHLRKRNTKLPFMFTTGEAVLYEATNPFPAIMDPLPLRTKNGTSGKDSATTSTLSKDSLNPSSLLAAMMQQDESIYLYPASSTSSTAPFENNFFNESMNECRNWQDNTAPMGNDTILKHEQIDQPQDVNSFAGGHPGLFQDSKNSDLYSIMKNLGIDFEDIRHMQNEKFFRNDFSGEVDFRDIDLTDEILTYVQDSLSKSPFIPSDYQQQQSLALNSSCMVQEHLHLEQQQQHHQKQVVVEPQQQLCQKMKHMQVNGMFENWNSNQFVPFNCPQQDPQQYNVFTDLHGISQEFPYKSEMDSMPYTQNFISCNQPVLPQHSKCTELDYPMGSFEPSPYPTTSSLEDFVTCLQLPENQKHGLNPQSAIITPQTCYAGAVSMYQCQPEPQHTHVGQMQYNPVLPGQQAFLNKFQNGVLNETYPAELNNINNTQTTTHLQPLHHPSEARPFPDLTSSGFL
Nature of the assay: In vitro assay 1: antagonism in human cell line (transactivation assay, kynurenic acid prestimulated). The settings on record: Assay 1: AHR-luc Hum Antagonism IC50 [M], 150 μM kynurenic acid, 20 hours, firefly luciferase.

Assay [2] has as its target T1, AHR. Nature of the assay: In vitro assay 2: agonism in human cell line (transactivation assay). To be noted: for IC50: Assay 2: AHR-luc Hum Agonism IC50 [M], no kynurenic acid, 20 hours, firefly luciferase; for pIC50: read-out: Assay 2: AHR-luc Hum Agonism IC50, no kynurenic acid, 20 hours, firefly luciferase.

pIC50: −log10 of the molar value.

The record followed here is patent US11040035B2, “3-oxo-2,6-diphenyl-2,3-dihydropyridazine-4-carboxamides” (BAYER PHARMA AKTIENGESELLSCHAFT, priority 2016, dated 2021).

A word on the IC50: it is the concentration at which inhibition is half-maximal. Lower therefore signals higher potency. The pIC50 is −log10 of the IC50, conventionally taken in molar units.

Take `O=C(NC(CO)C1CCOC1)c1cc(-c2ccc(Cl)c(F)c2)nn(-c2cccc(F)c2)c1=O` (single isomer, unassigned) [Example 292, 6-(4-Chloro-3-fluorophenyl)-2-(3-fluorophenyl)-N-[2-hydroxy-1-(tetrahydrofuran-3-yl)ethyl]-3-oxo-2,3-dihydropyridazine-4-carboxamide]: the IC50 at AHR [1] is 3.09e-07 M; against AHR [2] it was more than 2e-05 M.

On to `O=C(N[C@@H](CO)C(=O)O)c1cc(-c2ccc(Cl)cc2)nn(-c2cccc(F)c2)c1=O` [Example 165, N-{[6-(4-Chlorophenyl)-2-(3-fluorophenyl)-3-oxo-2,3-dihydropyridazin-4-yl]carbonyl}-L-serine], for which the IC50 at AHR [1] and against AHR [2] was more than 2e-05 M in each case.

For the molecule `COc1ccc(-c2cc(C(=O)N[C@@H]3CCCC[C@@H]3O)c(=O)n(-c3cccc(F)c3)n2)cc1` (relative stereo) [Example 106, 2-(3-Fluorophenyl)-N-(cis-2-hydroxycyclohexyl)-6-(4-methoxyphenyl)-3-oxo-2,3-dihydropyridazine-4-carboxamide], the IC50 against AHR [1] is 1.98e-08 M; at AHR [2], more than 2e-05 M.

For the molecule `CC(C)(CNC(=O)c1cc(-c2ccc(Cl)cc2)nn(-c2cccc(F)c2)c1=O)C(=O)O` [Example 399, 3-({[6-(4-Chlorophenyl)-2-(3-fluorophenyl)-3-oxo-2,3-dihydropyridazin-4-yl]carbonyl}amino)-2,2-dimethylpropanoic acid], the IC50 is 7.2e-07 M against AHR [1] and more than 2e-05 M against AHR [2].

On to `O=C(NCC(O)C(F)(F)F)c1cc(-c2ccc(Cl)cc2)nn(-c2cc(Cl)cc(Cl)c2)c1=O` (centres unmarked) [Example 311, 6-(4-Chlorophenyl)-2-(3,5-dichlorophenyl)-3-oxo-N-(3,3,3-trifluoro-2-hydroxypropyl)-2,3-dihydropyridazine-4-carboxamide], for which the IC50 is 6.6e-07 M against AHR [1] and more than 2e-05 M against AHR [2].

For the molecule `CN1CCC(O)(CNC(=O)c2cc(-c3ccc(Cl)cc3)nn(-c3cccc(F)c3)c2=O)CC1` [Example 234, 6-(4-Chlorophenyl)-2-(3-fluorophenyl)-N-[(4-hydroxy-1-methylpiperidin-4-yl)methyl]-3-oxo-2,3-dihydropyridazine-4-carboxamide], the concentration for half-maximal inhibition (IC50) on AHR [1] was 1.56e-06 M; against AHR [2] it was more than 2e-05 M.

`O=C(NCC(O)C(F)F)c1cc(-c2ccc(Cl)cc2)nn(-c2cccc(F)c2)c1=O` (single isomer, unassigned; (+)) [Example 223, (+)-6-(4-Chlorophenyl)-N-(3,3-difluoro-2-hydroxypropyl)-2-(3-fluorophenyl)-3-oxo-2,3-dihydropyridazine-4-carboxamide] displayed an IC50 on AHR [1] of 1.28e-07 M. Besides, the pIC50 at AHR [2] is less than 4.70.

With `O=C(NC[C@H](O)CO)c1cc(-c2ccc(Cl)cc2)nn(-c2cccc(F)c2)c1=O` [Example 156, 6-(4-Chlorophenyl)-N-[(2S)-2,3-dihydroxypropyl]-2-(3-fluorophenyl)-3-oxo-2,3-dihydropyridazine-4-carboxamide], the IC50 at AHR [1] was 1.99e-07 M; against AHR [2], more than 2e-05 M.

`O=C(NCC(O)C(F)(F)F)c1cc(-c2ccc(Cl)c(F)c2)nn(-c2cc(F)cc(F)c2)c1=O` (centres unmarked) [Example 403, 6-(4-chloro-3-fluorophenyl)-2-(3,5-difluorophenyl)-3-oxo-N-(3,3,3-trifluoro-2-hydroxypropyl)-2,3-dihydropyridazine-4-carboxamide]: the half-maximal inhibitory concentration (IC50) at AHR [1] is 3.1e-07 M; against AHR [2], more than 2e-05 M.

On to `C[C@@H](NC(=O)c1cc(-c2ccc(OC(F)(F)F)cc2)nn(-c2cccc(F)c2)c1=O)C(C)(C)O` [Example 381, 2-(3-fluorophenyl)-N-[(2R)-3-hydroxy-3-methylbutan-2-yl]-3-oxo-6-[4-(trifluoromethoxy)phenyl]-2,3-dihydropyridazine-4-carboxamide], for which the figures for the IC50 at AHR [1] and against AHR [2] were 4.7e-08 M and more than 2e-05 M, respectively.

At AHR [1], `CC(NC(=O)c1cc(-c2ccc(Cl)cc2)nn(-c2cccc(F)c2)c1=O)C(O)CO` (single isomer, unassigned) [Example 359, 6-(4-chlorophenyl)-N-(3,4-dihydroxybutan-2-yl)-2-(3-fluorophenyl)-3-oxo-2,3-dihydropyridazine-4-carboxamide] registered an IC50 of 2.67e-08 M. Moreover, the pIC50 at AHR [2] is less than 4.70.

Take `CC(O)C(C)NC(=O)c1cc(-c2ccc(OC(F)(F)F)cc2)nn(-c2cccc(F)c2)c1=O` (single isomer, unassigned) [Example 180, 2-(3-Fluorophenyl)-N-(3-hydroxybutan-2-yl)-3-oxo-6-[4-(trifluoromethoxy)phenyl]-2,3-dihydropyridazine-4-carboxamide]: the IC50 is 1.24e-07 M against AHR [1] and more than 2e-05 M on AHR [2].

As for `O=C(NCC(O)C(F)(F)F)c1cc(-c2ccc(OC(F)F)cc2)nn(-c2cccc(F)c2)c1=O` (single isomer, unassigned) [Example 121, 6-[4-(Difluoromethoxy)phenyl]-2-(3-fluorophenyl)-3-oxo-N-(3,3,3-trifluoro-2-hydroxypropyl)-2,3-dihydropyridazine-4-carboxamide], the IC50 against AHR [1] is 3.42e-08 M; on AHR [2], more than 2e-05 M.

In the case of `CC(C)C(O)CNC(=O)c1cc(-c2ccc(Cl)cc2)nn(-c2cccc(Cl)c2)c1=O` (single isomer, unassigned) [Example 68, 2-(3-Chlorophenyl)-6-(4-chlorophenyl)-N-(2-hydroxy-3-methylbutyl)-3-oxo-2,3-dihydropyridazine-4-carboxamide], the IC50 was 3.7e-07 M at AHR [1] and more than 2e-05 M against AHR [2].

As for `C[C@@H](CO)NC(=O)c1cc(-c2ccc(Cl)c(F)c2)nn(-c2cc(F)cc(F)c2)c1=O` [Example 402, 6-(4-chloro-3-fluorophenyl)-2-(3,5-difluorophenyl)-N-[(2S)-1-hydroxypropan-2-yl]-3-oxo-2,3-dihydropyridazine-4-carboxamide], the values for the IC50 on AHR [1] and against AHR [2] were 3.7e-07 M and more than 2e-05 M, respectively.

With `COC(=O)[C@H](CO)NC(=O)c1cc(-c2ccc(Cl)cc2)nn(-c2cccc(F)c2)c1=O` [Example 153, Methyl N-{[6-(4-chlorophenyl)-2-(3-fluorophenyl)-3-oxo-2,3-dihydropyridazin-4-yl]carbonyl}-L-serinate], the values for the IC50 at AHR [1] and on AHR [2] were 1.43e-07 M and more than 2e-05 M, respectively.

For the molecule `COCCC(CO)NC(=O)c1cc(-c2ccc(Cl)cc2)nn(-c2cccc(F)c2)c1=O` (racemic) [Example 227, 6-(4-Chlorophenyl)-2-(3-fluorophenyl)-N-[(2RS)-1-hydroxy-4-methoxybutan-2-yl]-3-oxo-2,3-dihydropyridazine-4-carboxamide], the half-inhibitory concentration (IC50) on AHR [1] is 3.57e-07 M; against AHR [2], more than 2e-05 M.

Consider `O=C(NC(CO)C1CCOC1)c1cc(-c2ccc(OC(F)F)cc2)nn(-c2cccc(F)c2)c1=O` (centres unmarked) [Example 144, 6-[4-(Difluoromethoxy)phenyl]-2-(3-fluorophenyl)-N-{(2-hydroxy-1-tetrahydrofuran-3-yl)ethyl}-3-oxo-2,3-dihydropyridazine-4-carboxamide], for which the IC50 against AHR [1] was 8.37e-08 M; on AHR [2], more than 2e-05 M.

In the case of `O=C(NCC(O)C(F)(F)F)c1cc(-c2ccc(Cl)cc2)nn(-c2cccc(C(F)F)c2)c1=O` (centres unmarked) [Example 389, 6-(4-chlorophenyl)-2-[3-(difluoromethyl)phenyl]-3-oxo-N-(3,3,3-trifluoro-2-hydroxypropyl)-2,3-dihydropyridazine-4-carboxamide], the values for the IC50 at AHR [1] and on AHR [2] were 8.8e-07 M and more than 2e-05 M, respectively.

Take `CC(C)[C@@H](CO)NC(=O)c1cc(-c2ccc(Cl)cc2)nn(-c2ccccc2)c1=O` [Example 75, 6-(4-chlorophenyl)-N-[(2S)-1-hydroxy-3-methylbutan-2-yl]-3-oxo-2-phenyl-2,3-dihydropyridazine-4-carboxamide]: the concentration for half-maximal inhibition (IC50) is 3.45e-08 M against AHR [1] and more than 2e-05 M on AHR [2].

As to `O=C(N[C@@H](CO)Cc1ccccc1)c1cc(-c2ccc(Cl)cc2)nn(-c2cccc(F)c2)c1=O` [Example 219, (+)-6-(4-Chlorophenyl)-2-(3-fluorophenyl)-N-[(2R)-1-hydroxy-3-phenylpropan-2-yl]-3-oxo-2,3-dihydropyridazine-4-carboxamide], the figures for the IC50 on AHR [1] and against AHR [2] were 3.38e-06 M and more than 2e-05 M, respectively.

Regarding `O=C(NC(CO)C1CCOC1)c1cc(-c2ccc(Cl)c(F)c2)nn(-c2cccc(F)c2)c1=O` (single isomer, unassigned) [Example 295, 6-(4-Chloro-3-fluorophenyl)-2-(3-fluorophenyl)-N-[2-hydroxy-1-(tetrahydrofuran-3-yl)ethyl]-3-oxo-2,3-dihydropyridazine-4-carboxamide], half-maximal inhibition against AHR [1] (IC50) required 8.3e-07 M. The pIC50 on AHR [2] was less than 4.70.
